Source: ChEMBL document CHEMBL1153791, “Acylphloroglucinol, biyouyanagiol, biyouyanagin B, and related spiro-lactones from Hypericum chinense” (J Nat Prod, 2009)
Converted amounts (≈) assume the structure as drawn.

Legend:
Assay type in all cases: functional, cell-based
KB = test: Cytotoxicity against human KB cells after 48 hrs by MTT assay
[1] = Cytotoxicity against human multidrug resistant KB-C2 cells after 48 hrs by MTT assay; conditions: KB-C2, 48 h
[2] = Cytotoxicity against human multidrug resistant KB-C2 cells after 48 hrs by MTT assay in the presence of colchicine; conditions: KB-C2, 48 h
MCF7 = test: Cytotoxicity against human MCF7 cells after 48 hrs by MTT assay; conditions: MCF7, 48 h
K562 [3] = test: Cytotoxicity against human K562 cells after 48 hrs by MTT assay; conditions: K562, 48 h
K562 [4] = test: Cytotoxicity against human doxorubicin-resistant K562 cells after 48 hrs by MTT assay; conditions: K562, 48 h
COLO 205 = test: Cytotoxicity against human COLO205 cells after 48 hrs by MTT assay; conditions: COLO 205, 48 h

C=C[C@@]1(C)COC(=O)C1(O)C(=O)/C=C(\O)c1ccccc1 (some centres undefined)
IC50 (KB): > 100 µg/mL | IC50 [1]: > 100 µg/mL | IC50 [2]: 53.1 µg/mL | IC50 (MCF7): 62.1 µg/mL (≈ 215 µM) | IC50 (K562 [3]): > 100 µg/mL | IC50 (K562 [4]): 33.7 µg/mL (≈ 117 µM) | IC50 (COLO 205): 79 µg/mL (≈ 274 µM)

COc1cc(/C=C/C(=O)OC[C@H](Cc2ccc(O)c(OC)c2)[C@H](COC(=O)/C=C/c2ccc(O)c(OC)c2)Cc2ccc(O)c(OC)c2)ccc1O
IC50 (KB): 14.1 µg/mL (≈ 19.7 µM) | IC50 [1]: 9.4 µg/mL (≈ 13.2 µM) | IC50 [2]: 4.5 µg/mL | IC50 (MCF7): 5.9 µg/mL (≈ 8.25 µM) | IC50 (K562 [3]): 17.3 µg/mL (≈ 24.2 µM) | IC50 (K562 [4]): 19.9 µg/mL (≈ 27.8 µM) | IC50 (COLO 205): 5.2 µg/mL (≈ 7.28 µM)

C=C[C@@]1(C)COC(=O)[C@]12O[C@]1(c3ccccc3)[C@H](C2=O)[C@H]2[C@H]([C@H](C)CCC=C(C)C)CC=C(C)[C@H]21 [BIYOUYANAGIN A]
IC50 (KB): 38.8 µg/mL (≈ 81.7 µM) | IC50 [1]: 36.2 µg/mL (≈ 76.3 µM) | IC50 [2]: 16.8 µg/mL | IC50 (MCF7): 27.1 µg/mL (≈ 57.1 µM) | IC50 (K562 [3]): 31.1 µg/mL (≈ 65.5 µM) | IC50 (K562 [4]): 16.6 µg/mL (≈ 35 µM) | IC50 (COLO 205): 26.9 µg/mL (≈ 56.7 µM)

COC(=O)[C@@]1(O)C(=O)[C@](C)(CC=C(C)C)C(=O)C12C[C@H]1[C@@H](CC[C@@]1(C)O)[C@@](C)(O)C2 (some centres undefined) [BIYOUYANAGIOL]
IC50 (KB): > 100 µg/mL | IC50 [1]: > 100 µg/mL | IC50 [2]: 47.8 µg/mL | IC50 (MCF7): > 100 µg/mL | IC50 (K562 [3]): > 100 µg/mL | IC50 (K562 [4]): > 100 µg/mL | IC50 (COLO 205): > 100 µg/mL

COc1cccc2c1C(=O)c1c(O)c3c(c(O)c1C2=O)C[C@@](O)(C(C)=O)C[C@@H]3O[C@H]1C[C@H](N)[C@H](O)[C@H](C)O1 [DAUNORUBICIN]
IC50 (KB): 0.22 µg/mL (≈ 0.417 µM) | IC50 [1]: > 100 µg/mL | IC50 (MCF7): 0.33 µg/mL (≈ 0.626 µM) | IC50 (K562 [3]): 0.45 µg/mL (≈ 0.853 µM) | IC50 (K562 [4]): 15.2 µg/mL (≈ 28.8 µM) | IC50 (COLO 205): 0.5 µg/mL (≈ 0.948 µM)

OC[C@H]1[C@@H](Cc2ccc3c(c2)OCO3)CO[C@@H]1c1ccc2c(c1)OCO2 [DIHYDROSESAMIN]
IC50 (KB): > 100 µg/mL | IC50 [1]: > 100 µg/mL | IC50 [2]: 53.1 µg/mL | IC50 (MCF7): 62.1 µg/mL (≈ 174 µM) | IC50 (K562 [3]): > 100 µg/mL | IC50 (K562 [4]): 33.7 µg/mL (≈ 94.6 µM) | IC50 (COLO 205): 79 µg/mL (≈ 222 µM)

COc1cc(/C=C/C(=O)OC[C@H](Cc2ccc(O)c(OC)c2)[C@H](CO)Cc2ccc(O)c(OC)c2)ccc1O [HANULTARIN]
IC50 (KB): 33.7 µg/mL (≈ 62.6 µM) | IC50 [1]: 20.7 µg/mL (≈ 38.4 µM) | IC50 [2]: 20.9 µg/mL | IC50 (MCF7): 18.9 µg/mL (≈ 35.1 µM) | IC50 (K562 [3]): 35.2 µg/mL (≈ 65.4 µM) | IC50 (K562 [4]): 33.1 µg/mL (≈ 61.5 µM) | IC50 (COLO 205): 16.8 µg/mL (≈ 31.2 µM)

C=C[C@@]1(C)COC(=O)[C@]12OC([C@H](C)CC)=CC2=O [HYPERLACTONE A]
IC50 (KB): > 100 µg/mL | IC50 [1]: > 100 µg/mL | IC50 [2]: 70.8 µg/mL | IC50 (MCF7): > 100 µg/mL | IC50 (K562 [3]): > 100 µg/mL | IC50 (K562 [4]): 47.1 µg/mL (≈ 188 µM) | IC50 (COLO 205): > 100 µg/mL

C=C[C@@]1(C)COC(=O)[C@]12OC(c1ccccc1)=CC2=O [HYPERLACTONE C]
IC50 (KB): > 100 µg/mL | IC50 [1]: > 100 µg/mL | IC50 [2]: 51.8 µg/mL | IC50 (MCF7): 77.7 µg/mL (≈ 287 µM) | IC50 (K562 [3]): > 100 µg/mL | IC50 (K562 [4]): 32.8 µg/mL (≈ 121 µM) | IC50 (COLO 205): 58.5 µg/mL (≈ 216 µM)

C=C[C@@]1(C)COC(=O)C1C(=O)/C=C(\O)c1ccccc1 (some centres undefined) [HYPERLACTONE D]
IC50 (KB): 61 µg/mL (≈ 224 µM) | IC50 [1]: 22.3 µg/mL (≈ 81.9 µM) | IC50 [2]: 24.6 µg/mL | IC50 (MCF7): 52.9 µg/mL (≈ 194 µM) | IC50 (K562 [3]): 47.8 µg/mL (≈ 176 µM) | IC50 (K562 [4]): 20 µg/mL (≈ 73.4 µM) | IC50 (COLO 205): 37.5 µg/mL (≈ 138 µM)
